Columns and labels:
[1] = tested on: Cladophora sp.; assay: 15-day flask exposure of Cladophora sp. to DDA and Cutrine-Plus; assay type: cell-based; conditions: at concentrations comparable to Cutrine-Plus
Method: The experiment was conducted for 15 days and was initiated using 100 mL BG-11 medium contained in 200 mL flasks. […] The experiment was initiated by exposing the algae to 0.1, 0.2, 0.4, 0.8, and 1.6 mg/L as DDA, 0.2, 0.6, 1.0 mg Cu/L Cutrine®-Plus, and combinations of DDA and Cutrine®-Plus. […] The solution was heated in a water bath and diluted to 70 mg/L using warmed deionized water. The concentration of DMSO was approximately 350 mg/L in the test beakers. Cutrine®-Plus stock solution was made at 50 mg/L using deionized water. Three replicates of each exposure concentration, along with three replicates of an untreated reference were tested. Each sample was Maintained at room temperature with 12-hours of light and 12-h dark photoperiod. […] 15 days after exposure. The Bars in FIG. 3 sharing the same letter are not different according to Fishers Protected LSD test at p≤0.05 significance level.

[2] = tested on: M. aeruginosa UTEX 2385; assay: MIC 96-well microtiter plate assay in BG-11, 10 days; assay type: cell-based, Microcystis aeruginosa; conditions: 10 days, initial 0.1 ug/L
Method: MICs for the samples against M. aeruginosa were determined in a standard 96-well microtiter plate assay in BG-11 with a starting inoculum of ˜1×10^5 cells/mL. Algae plates were incubated for 10 days. MIC concentrations were determined visually, in vivo chlorophyll a was determined fluorometrically, and cell density was determined via direct counting. Samples were tested in duplicate.

[3] = Solubility remark on stock solution preparation; assay type: physicochemical; conditions: stock solution made using 2% DMSO solution, heated
[4] = tested on: Microcystis aeruginosa; assay: 15-day flask exposure of Microcystis aeruginosa to DDA and Cutrine-Plus; assay type: cell-based; conditions: for Cell Densities of Microcystis aeruginosa 15 days after: initial 4.5×10^4 cells/mL
Method: The experiment was conducted for 15 days and was initiated using 100 mL BG-11 medium contained in 200 mL flasks. […] The experiment was initiated by exposing the algae to 0.1, 0.2, 0.4, 0.8, and 1.6 mg/L as DDA, 0.2, 0.6, 1.0 mg Cu/L Cutrine®-Plus, and combinations of DDA and Cutrine®-Plus. […] The solution was heated in a water bath and diluted to 70 mg/L using warmed deionized water. The concentration of DMSO was approximately 350 mg/L in the test beakers. Cutrine®-Plus stock solution was made at 50 mg/L using deionized water. Three replicates of each exposure concentration, along with three replicates of an untreated reference were tested. Each sample was Maintained at room temperature with 12-hours of light and 12-hours dark photo period.

Q: For CCCCCCCCCCCCN [dodecylamine], which “effectiveness as an algaecide on Cladophora sp.” value [1] is on record?
A: effective

Q: What about the “In vivo chlorophyll a of M. aeruginosa” value ([2]; 0.031 active ppm) of the same compound?
A: 7.85 µg/L

Q: And the “In vivo chlorophyll a of M. aeruginosa” value ([2]; 0.063 active ppm)?
A: 5.75 µg/L

Q: And the “In vivo chlorophyll a of M. aeruginosa” value ([2]; 0.125 active ppm)?
A: 2.60 µg/L

Q: And the “In vivo chlorophyll a of M. aeruginosa” value ([2]; 0.25 active ppm)?
A: 0.35 µg/L

Q: And the “In vivo chlorophyll a of M. aeruginosa” value ([2]; 0.5 active ppm)?
A: 0.00 µg/L

Q: What about the solubility [3] of the same compound?
A: low solubility

Q: And the “log reduction in M. aeruginosa cells” value ([4]; 0.4 mg/L, 15 days after start, compared to untreated reference)?
A: 1 log

Q: And the “Chlorophyll a content of M. aeruginosa compared to untreated reference algae” value ([4]; 0.2 to 1.6 ppm (mg/L), 15 days after start, p<0.01)?
A: reduced

Q: And the “Cell Densities of Microcystis aeruginosa 15 days after” value (shortened to “Cell Densities”) ([4]; DDA 0.1 mg/L, 15 days)?
A: 5.2 × 10^6 cells/mL

Q: What about the “Cell Densities” value ([4]; DDA 0.2 mg/L, 15 days) of the same compound?
A: 6.7 × 10^6 cells/mL

Q: And the “Cell Densities” value ([4]; DDA 0.4 mg/L, 15 days)?
A: 8.0 × 10^5 cells/mL

Q: What about the “Cell Densities” value ([4]; DDA 0.8 mg/L, 15 days) of the same compound?
A: <10000 cells/mL

Q: What about the “Cell Densities” value ([4]; DDA 1.6 mg/L, 15 days) of the same compound?
A: <10000 cells/mL

Q: What about the “concentration necessary to achieve similar results as Cutrine-Plus (cell count data)” value ([4]; M. aeruginosa control, 15 days) of the same compound?
A: 0.8 mg/L

Q: What about the “effectiveness as an algaecide on Microcystis aeruginosa” value ([4]; at concentrations comparable to Cutrine-Plus) of the same compound?
A: effective

— patent US20180249707A1, “METHOD OF CONTROLLING ALGAE IN A BODY OF WATER” (priority 2013, published 2018)
